Results from the CheMixHub viscosity set.

Assay: xn = mol fraction of the nth substance listed

C1CCOC1 + CCC(C)O
viscosity [mPa·s], 101 kPa
Conditions | 298.15 K | 313.15 K
x1 = 0.0637 | 2.356 | 1.464
x1 = 0.1052 | 2.02 | 1.309
x1 = 0.1565 | 1.747 | 1.153
x1 = 0.2117 | 1.467 | 0.9942
x1 = 0.3052 | 1.155 | 0.8235
x1 = 0.4013 | 0.9585 | 0.7044
x1 = 0.4556 | 0.8592 | 0.6537
x1 = 0.4888 | 0.8108 | 0.6218
x1 = 0.5 | 0.8021 | –
x1 = 0.6054 | 0.6741 | 0.5395
x1 = 0.7009 | 0.5953 | 0.4897
x1 = 0.8036 | 0.533 | 0.4512
x1 = 0.8596 | 0.5129 | 0.4316
x1 = 0.9151 | 0.4818 | 0.4075
x1 = 0.9497 | 0.4749 | 0.4072

CC(C)=O + CO
Conditions | viscosity [mPa·s]
293.15 K, 101 kPa, x1 = 0.025 | 0.563
293.15 K, 101 kPa, x1 = 0.098 | 0.507
293.15 K, 101 kPa, x1 = 0.244 | 0.435
293.15 K, 101 kPa, x1 = 0.385 | 0.389
293.15 K, 101 kPa, x1 = 0.487 | 0.371
293.15 K, 101 kPa, x1 = 0.703 | 0.342
293.15 K, 101 kPa, x1 = 0.865 | 0.333
298.15 K, 101.33 kPa, x1 = 0.059 | 0.4921
298.15 K, 101.33 kPa, x1 = 0.1261 | 0.455
298.15 K, 101.33 kPa, x1 = 0.1889 | 0.4225
298.15 K, 101.33 kPa, x1 = 0.2564 | 0.3965
298.15 K, 101.33 kPa, x1 = 0.3691 | 0.367
298.15 K, 101.33 kPa, x1 = 0.4581 | 0.3458
298.15 K, 101.33 kPa, x1 = 0.558 | 0.3292
298.15 K, 101.33 kPa, x2 = 0.7146 | 0.3932
303.15 K, 101 kPa, x1 = 0.025 | 0.496
303.15 K, 101 kPa, x1 = 0.098 | 0.449
303.15 K, 101 kPa, x1 = 0.244 | 0.389
303.15 K, 101 kPa, x1 = 0.385 | 0.352
303.15 K, 101 kPa, x1 = 0.703 | 0.314
303.15 K, 101 kPa, x1 = 0.865 | 0.308
313.15 K, 101 kPa, x1 = 0.025 | 0.435
313.15 K, 101 kPa, x1 = 0.244 | 0.349
313.15 K, 101 kPa, x1 = 0.385 | 0.322
313.15 K, 101 kPa, x1 = 0.487 | 0.311
313.15 K, 101 kPa, x1 = 0.703 | 0.291
313.15 K, 101 kPa, x1 = 0.865 | 0.287
318.15 K, 101 kPa, x1 = 0.025 | 0.411
318.15 K, 101 kPa, x1 = 0.098 | 0.378
318.15 K, 101 kPa, x1 = 0.244 | 0.335
318.15 K, 101 kPa, x1 = 0.385 | 0.311
318.15 K, 101 kPa, x1 = 0.487 | 0.3
318.15 K, 101 kPa, x1 = 0.703 | 0.282
318.15 K, 101 kPa, x1 = 0.865 | 0.277
323.15 K, 101 kPa, x1 = 0.025 | 0.386
323.15 K, 101 kPa, x1 = 0.098 | 0.362
323.15 K, 101 kPa, x1 = 0.244 | 0.32

CC1COC(=O)O1 (stereo not drawn) + CCO
298 K, 101.3 kPa
Conditions | viscosity [mPa·s]
x1 = 0.021 | 1.1
x1 = 0.0404 | 1.116
x1 = 0.06 | 1.131
x1 = 0.0806 | 1.147
x1 = 0.0987 | 1.161
x1 = 0.2008 | 1.237
x1 = 0.3003 | 1.312
x1 = 0.4003 | 1.397
x1 = 0.5002 | 1.497
x1 = 0.6002 | 1.619
x1 = 0.7001 | 1.768
x1 = 0.8 | 1.947
x1 = 0.9005 | 2.165

CC(C)=O + C1CCCCC1
viscosity [mPa·s], 101.33 kPa
Conditions | 293.15 K | 298.15 K | 303.15 K | 307.35 K
x1 = 0.091 | – | – | – | 0.662
x1 = 0.3116 | – | – | – | 0.512
x1 = 0.3949 | – | – | – | 0.461
x1 = 0.4589 | – | – | – | 0.431
x1 = 0.5299 | – | – | – | 0.402
x1 = 0.7897 | – | – | – | 0.323
x2 = 0.049 | 0.329 | 0.313 | 0.299 | –
x2 = 0.0917 | 0.336 | 0.32 | 0.305 | –
x2 = 0.1959 | 0.361 | 0.343 | 0.326 | –
x2 = 0.2889 | 0.392 | 0.371 | 0.352 | –
x2 = 0.4092 | 0.443 | 0.417 | 0.394 | –
x2 = 0.5009 | 0.486 | 0.456 | 0.429 | –
x2 = 0.5984 | 0.544 | 0.509 | 0.477 | –
x2 = 0.7007 | 0.621 | 0.578 | 0.54 | –
x2 = 0.8046 | 0.7 | 0.65 | 0.606 | –
x2 = 0.9051 | 0.818 | 0.756 | 0.701 | –
x2 = 0.958 | 0.895 | 0.829 | 0.762 | –
